What was measured:
[1] = Test of velocity of dissolution; format: physicochemical; conditions: 1.2 mmol added to 10 mL of water with stirring at room temperature
Protocol: Test of Velocity of Dissolution
Each of the following was added to separate containers containing 10 mL of water with stirring at room temperature: (a) a mixture (0.53 g) of 1.2 mmol of inosine and 1.2 mmol of L-arginine, (b) 1.2 mmol (0.53 g) of the inosine. L-arginine salt obtained in Example 1, and (3) 1.2 mmol (0.32 g) of inosine. The time period for complete dissolution was measured for each. The equimolar mixture of inosine and L-arginine required 50 seconds for complete dissolution. On the other hand, inosine. […] L-arginine salt were confirmed.

[2] = test system: Lawn seedlings (Western lawn: bent grass); assay: Plant growth promoting effect, hydroponic culture of lawn seedlings; format: in vivo; conditions: hydroponics in HYPONEX diluted 2,000-fold, inosine concentration 20 ppm, after a month of culturing
Protocol: Plant Growth Promoting Effect
Lawn seedlings (Western lawn: bent grass) were raised and divided into two groups each containing 30 plants. Hydroponics were performed as follows. Both the control group and the inosine. L-arginine salt group were cultured using HYPONEX, diluted by a facter of 2,000. The HYPONEX diluted by a facter of 2000 alone was used as culture fluid for the control group. Inosine- L-arginine salt was added to the culture fluid to an inosine concentration of 20 ppm.
After a month of culturing, the average plant length, the average root length, the number of leaves for 30 plants, the number of branching of a stem for 30 plants, the weight for 30 plants, and the dried weight for 30 plants were measured for each group. From the Table, the effectiveness of inosine. L-arginine salt was confirmed.

[3] = at normal temperatures; cited from earlier work

## N=C(N)NCCC[C@H](N)C(=O)O.OC[C@H]1O[C@@H](n2cnc3c(O)ncnc32)[C@H](O)[C@@H]1O [inosine · L-arginine salt, inosine. L-arginine salt]
[1]
  time period for complete dissolution: dissolved immediately
[2]
  Dried weight per 30 plants: 0.0434 g
  Number of branching per 30 plants: 37
  Number of leaves per 30 plants: 102
  Weight per 30 plants: 0.13 g
[2]; 30 plants
  Average plant length: 6.0 cm
  Average root length: 5.0 cm

## OC[C@H]1O[C@@H](n2cnc3c(O)ncnc32)[C@H](O)[C@@H]1O [inosine]
[3]
  solubility in water: about 1.6%
[1]
  time period for complete dissolution: did not completely dissolve
